Measured values as given in article PMC12301034, “Design and Synthesis of Boronic Chalcones with Dual Anticancer and Anti-Inflammatory Activity” (Molecules, 2025).

Key:
NOK-si cells = test: MTT cytotoxicity assay on NOK-si normal oral keratinocytes; format: cell-based; details: 24 h incubation
Excerpt: (§1) The SCC-25 (ATCC® CRL-1628™), Detroit-562 (ATCC® CCL-138™), and THP-1 (ATCC® TIB-202™) cells were purchased from Rio de Janeiro Cell Bank (Duque de Caxias, Brazil), and NOK-si was kindly provided by Prof. Carlos Rossa from the School of Dentistry—UNESP. All the cells were cultivated according to standard conditions. Human colorectal adenocarcinoma HCT116 cell lines (ATCC® CCL-247™) expressing p53 and its p53-null isogenic derivative (HCT116 p53^−/−) were provided by B. Vogelstein (The Johns Hopkins Kimmel Cancer Center, Baltimore, MD, USA).
(§2) Cells (NOK-si, SCC-25, and Detroit-562) were grown in a DMEM medium (Dulbecco’s Modified Eagle Medium), supplemented according to the needs of each lineage, as recommended by its cell banks, with 2 mM L-glutamine, 10% or 20% fetal bovine serum (FBS), 1% antibiotic–antimycotic solution (5 mg/mL penicillin, 5 mg/mL streptomycin, and 10 mg/mL neomycin), 4.5 g/L of glucose, and 3.7 g/L of sodium bicarbonate (NaHCO3). All cell lines were cultured in flasks at 37 °C in 5% carbon dioxide (CO2) and 95% of relative humidity. The assays were conducted between the third- and the seventh-cell passage, with sub-cultures every 3–4 days to maintain exponential growth. The cell viability was checked using the trypan blue dye exclusion assay for all experiments, where over 95% of the cells were viable at the beginning of the tests. NOK-si, SCC-25, and Detroit-562 were initially thawed and cultured in 25 cm^2 cell culture flasks. Cell growth was monitored using a microscope, and the culture medium was changed periodically. Upon reaching confluency, cell dissociation was achieved by adding 5 mL of trypsin (Sigma-Aldrich, St Louis, MO, USA) and incubating the bottles in a CO2 incubator for 10 min. Subsequently, the cells were transferred to 15 mL Falcon tubes and centrifuged at 2000 rpm for 10 min. Cell counting was performed using a Countess II FL automated cell counter (ThermoFischer, Waltham, MA, USA). The cells were seeded at a density of 30,000 cells per well in 96-well plates. The plates were then incubated at 37 °C in 5% CO2 for 24 h. Following this, test compounds were incubated for another 24 h at 10 different concentrations: 50, 25, 12.5, 6.25, 3.12, 1.56, 0.78, 0.39, 0.19, and 0.097 µg/mL. After the specified time, MTT reagent (3 mg/mL) (Sigma-Aldrich, St Louis, MO, USA) dissolved in phenol-free RPMI 1640 was added and incubated for 4 h. The formed MTT crystals were solubilized using 2-propanol P.A. (Sigma-Aldrich, St Louis, MO, USA) with agitation. Absorbance was read at 562 nm using an EZ Read 400 microplate reader (Biochrom, Cambridge, UK) and ADAP 2.0 Biochrom software (version 2.0). IC50 values and graphs were calculated using Excel and Prism software (version 10.4.1). The MTT assay results were evaluated for normality using the Shapiro–Wilk test, followed by one-way ANOVA with Tukey’s post hoc test at a significance level of 5%.

[1] = Partition coefficient (Log P), OECD 117 HPLC method
IL-1β = test: Anti-inflammatory assay, IL-1β in LPS-stimulated THP-1 cells (CBA); format: cell-based, human; details: 2 and 4 µg/mL, 24 h
Method: For this assay, THP-1 (BCRJ cód. 0234) cells were cultured in Roswell Park Memorial Institute (RPMI-1640, Sigma-Aldrich; Saint Louis, MO, USA) media supplemented with 2 mM L-glutamine, 1 mM sodium pyruvate, 1.50 g/L of sodium bicarbonate, and 10% fetal bovine serum. For obtaining Macrophage-like cells, 250,000 cells per well were plated in a 24-well cell culture plate. A total of 20 ng/mL of Forbol 12-miristato-13-acetato (PMA) was added to each well, and the cells were incubated for 48 h at 37 °C with 5% CO2. After the 48 h, the wells were washed with 1X PBS, and fresh RPMI-1640 media was added. The cells were then incubated for 24 h at 37 °C and 5% CO2. For the cell’s stimulations, after the 24 h, the well was washed with PBS and fresh RPMI1640 media without fetal bovine serum added. For the positive controls of the assay, 3 wells were stimulated with LPS (1 ng/µL) diluted in the same volume and media used for the drugs stimulation. Two different concentrations (2 and 4 µg/mL) were evaluated for each molecule, which were determined to be non-cytotoxic through a cell viability assay. After a 24 h period, the supernatant was removed and used in the cytokine quantification assay. A kit for inflammatory cytokines, BD® Cytometric Bead Array CBA Human Inflammatory, was employed for this assay, containing the following human cytokines: IL-8, IL-1β, IL-6, and TNF. […]

[2] = Metabolic stability in mouse (CD-1) liver microsomes; format: in vitro ADME
Method: The metabolic stability of test compounds and controls [imipramine (Sigma-Aldrich, St. Louis, MO, USA), verapamil (Sigma-Aldrich, St. Louis, MO, USA), and warfarin (Sigma-Aldrich, St. Louis, MO, USA)] were assessed using human pooled liver human microsomes (20 mg/mL) (GIBCO, Frederick, MD, USA) and pooled liver CD1 mouse microsomes (20 mg/mL) (GIBCO, Frederick, MD, USA). […] Microsomal suspensions were thawed and diluted in phosphate buffer to obtain a final concentration of 0.25 mg/mL. A solution of NADPH (Sigma-Aldrich, St. Louis, MO, USA) at […] was also prepared in phosphate buffer. […] The plate was incubated at 37 °C under shaking (100 rpm). […] The reactions were stopped by adding quenching solution (75 μL) consisting of acetonitrile:methanol (1:1) with an internal standard (50 nM). Samples were centrifuged (3500 rpm, 30 min) to remove precipitated microsomal proteins, and the supernatant fractions were analyzed by an LCMS-8045 system (Shimazu, Kyoto, Japan). The chromatographic analysis was performed using a Supelco Ascentis Express C18 column (3 cm × 2.1 mm, 5 μm). The mobile phases consisted of water + 0.1% formic acid (A) and acetonitrile + 0.1% formic acid (B). […] The run time was 2 min, with a sample injection volume of 10 μL and a flow rate of 0.7 mL/min. Metabolic stability was assessed by calculating the peak area ratios (analyte/internal standard) and converting them into the percentage of the compound remaining, using the area ratio at time 0 as 100%.

SCC-25 cells = test: MTT cytotoxicity assay on SCC-25 cells; format: cell-based, human; details: Homo sapiens, SCC-25; MTT, 24 h incubation, mean SEM of three experiments
Excerpt: as §1, §2

COc1cccc(C(=O)/C=C/c2cccc(B(O)O)c2)c1 [Compound 5, (E)-(3-(3-(3-methoxyphenyl)-3-oxoprop-1-en-1-yl)phenyl)boronic acid]
NOK-si IC50 (NOK-si cells): 58.9 ± 10.63 µM
CC50 (NOK-si cells; Keratinocyte, read-out: NOK-si IC50): 58.9 µM
chromatographic logP [1]: 2.92
reduction of IL-1β levels (IL-1β): comparable efficacy in reducing cytokine levels relative to LPS-stimulated cells
microsomal CLint at 0.51 μM ([2]; CD-1, mouse, microsomes, pH 7.4): 36 µL/min/mg
half-life at 0.51 μM ([2]; CD-1, mouse, pooled liver microsomes, pH 7.4, read-out: Mouse Liver Microsome (MsLM) T1/2): 56.8 min
Mouse Liver Microsome (MsLM) T1/2 ([2]; mouse): 77.02 min
IC50 (SCC-25 cells): 17.9 ± 0.35 µM
